Read-outs that look alike come from different tables or passages of the source.
Tested on: CSM14.1 cells
Assay: Primary HTS assay: ATP content (ATPlite) of undifferentiated CSM14.1 cells challenged with thapsigargin
Type: cell-based, rat
Conditions: thapsigargin-induced death of undifferentiated CSM14.1, ATP content
Excerpt: For convenience, and because transient reductions in temperature that might be associated with large screening experiments could restore Large T activity, we elected to develop our HTS using undifferentiated CSM14.1 cells, with the plan to then confirm hits using differentiated cells. For monitoring cell death, we used a commercially available bioluminescence reagent that determines intracellular ATP content, without requirement for complicated cell processing steps (ATPlite, Perkin Elmer). Thus, ATP was used as a surrogate indicator of cell survival for the primary assay.
Undifferentiated or differentiated CSM14.1 cells were plated at a density of 3,000 cells/well in 40 μL DMEM medium (containing 10% serum, 1 mM L-glutamine, and antibiotics) in 96 well flat-bottom microtiter plates composed of polystrene (Greiner Bio One, polystyrene, white wall, flat bottom, lumitrac, high binding). After overnight incubation at 32° C., DMSO (0.5% v/v) or 100 uM Salubrinal (Sal) in DMSO was delivered. After 2 hrs, 5 uL of a stock solution of 150 uM TG in DMEM medium containing 0.75% (v:v) DMSO to achieve a final concentration of approximately 15 uM. After culturing for 24 hrs, cellular ATP content was measured by addition of 20 uL per well of ATPlite solution (Perkin-Elmer), and then the plates were incubated for three minutes at room temperature, before reading with a Microplate Luminometer (BD Pharmingen Moonlight model 3096).
To determine the reproducibility of the ATP content assay, we prepared a 96-well plate in which half the wells received TG plus DMSO (assay minimum) and half received TG plus Salubrinal (assay maximum), then performed the ATP content studies using undifferentiated CSM14.1 cells (FIG. 6). CSM14.1 cells were cultured overnight at 3,000 cells per well in 96-well flat-bottom plates, then either DMSO (0.5% final concentration) or Salubrinal (100 μM) in DMSO (0.5% final concentration) was added to half the well (48 each). After two hrs, TG was added to all wells (15 μM final). Cells were cultured for 24 hrs, then the ATP content was measured using the ATPlite luminogenic assay. We then adapted this assay to the high-throughput environment, using a Biomex™ FX liquid handler for automated dispensing of assay components into microwells of 96-well plates. First, undifferentiated CSM14.1 cells were grown at 32° C. in DMEM medium supplemented with 10% fetal bovine serum (FBS), 1% penicillin/streptomycin, and 1% L-glutamine in 150 mm×25 mm polystyrene culture dishes to produce approximately 3×10^6 cells. Second, CSM14.1 cells were recovered from cultures by trypsinization when at 80-90% confluence, and suspended at 7.5×10^4 cells/mL in DMEM medium containing 2% FBS, 1 mM L-glutamine, and antibiotics 100 IU penicillin 100 μg/ml streptomycin. Third, the cell suspension was then delivered at 40 μL per well of 96-well plastic microtiter plates (Greiner Bio One, polystyrene, white wall, flat bottom, lumitrac, high binding, cat #655074), and the plates were cultured overnight at 32° C. in a humidified atmosphere in 95% air: 5% CO2. Fourth, using the automated liquid handler, 5 μL of test compounds in 10% DMSO were added to wells in columns 2-11 of the 96-well plates (leaving columns 1 and 12 intact) to achieve an approximate final concentration of 15 μg/mL test compound and a final concentration of 1% DMSO. Fifth, 5 μL of 1 mM Salubrinal in a solution of 10% DMSO:90% DMEM was added to wells of column 1/rows A-D of each plate, while 5 μL of 10% DMSO:90% DMEM solution was added to wells corresponding to column 1/rows E-H and to all wells in column 12. Sixth, the plates were returned to culture.

[1] = one value given, read-out: IC50
[2] = first assay, read-out: IC50 (μM), first value
[3] = second assay (value in bold), read-out: IC50 (μM), value from a second assay
[4] = Rattus norvegicus, one value given, read-out: IC50

| Compound | IC50 [1] [µM] | IC50 [2] [µM] | IC50 [3] [µM] | IC50 [4] [µM] |
| --- | --- | --- | --- | --- |
| CCN(CC)c1ccc(C2=Nc3ccccc3NC3=C2C(=O)CC(c2ccc(Cl)cc2)C3)cc1 (racemic) [MLS-0292126] | 16.5 | – | – | – |
| COc1ccc(C2CC(=O)C3=C(C2)Nc2ccccc2NC3c2cccc(O)c2)cc1OC (centres unmarked) [Compound 3192-5300] | 53.5 ± 3.45 | – | – | – |
| CCOc1ccc(C2CC(=O)C3=C(C2)Nc2ccccc2NC3c2cc(F)ccc2Cl)cc1OC (centres unmarked) [Compound 5991-0620] | > 200 | – | – | – |
| COc1ccccc1CN1CCN(C(=O)c2cc(OC)c(OC)c(OC)c2)CC1 [Compound 5397316] | > 200 | – | – | – |
| CCn1c2ccccc2c2cc(CN3CCN(C(=O)c4cc(OC)c(OC)c(OC)c4)CC3)ccc21 [Compound 5397372] | – | 18.9 ± 0.568 | 13.5 ± 2.02 | – |
| O=C(C(c1ccccc1)c1ccccc1)N1CCN(Cc2ccccc2[N+](=O)[O-])CC1 [Compound 5948365] | 19.5 | – | – | – |
| CCn1c2ccccc2c2cc(CN3CCN(C(=O)c4cccs4)CC3)ccc21 [Compound 5951613] | – | 16.74 ± 0.158 | 12.7 ± 1.11 | – |
| COc1ccc(CN2CCN(C(=O)c3ccc(-c4ccccc4)cc3)CC2)c(OC)c1 [Compound 5955734] | – | 23.8 | 16.5 ± 1.47 | – |
| CSc1ccc(C2Nc3ccccc3NC3=C2C(=O)CC(c2ccccc2)C3)cc1 (centres unmarked) [Compound 5963958] | 12.5 ± 0.179 | 18.6 ± 9.14 | 12.5 ± 0.179 | – |
| COc1ccc(C2CC(=O)C3=C(C2)Nc2ccccc2NC3c2cccc(Cl)c2)cc1 (centres unmarked) [Compound 5969327, 11-(3-chlorophenyl)-3-(4-methoxyphenyl)-2,3,4,5,10,11-hexahydro-1H-dibenzo[b,e][1,4]diazepin-1-one] | – | – | – | 21.7 ± 1.07 |
| CCN(CC)c1ccc(C2Nc3ccccc3NC3=C2C(=O)CC(c2ccc(OC)cc2)C3)cc1 (centres unmarked) [Compound 5969590] | 11.4 ± 1.49 | – | – | – |
| COc1ccc(Br)cc1CN1CCN(C(=O)c2ccc(-c3ccccc3)cc2)CC1 [Compound 5990041] | – | 12.8 ± 0.318 | 14.2 ± 1.2 | – |
| CCOc1ccc(CN2CCN(C(=O)c3ccc(-c4ccccc4)cc3)CC2)cc1 [Compound 5990076, 1-(4-biphenylylcarbonyl)-4-(4-ethoxybenzyl)piperazine] | – | – | – | > 200 |
| COc1ccc(OC)c(CN2CCN(C(=O)c3ccc(-c4ccccc4)cc3)CC2)c1 [Compound 5990137] | – | 17.5 ± 0.675 | 13.9 ± 1.06 | – |
| COc1ccccc1CN1CCN(C(=O)c2ccc(-c3ccccc3)cc2)CC1 [Compound 5996087, 1-(4-biphenylylcarbonyl)-4-(2-methoxybenzyl)piperazine] | – | – | – | 25 to 50 |
| CCn1c2ccccc2c2cc(CN3CCN(C(=O)c4ccc(OC)c(OC)c4)CC3)ccc21 [Compound 6033352] | – | 13.4 ± 0.248 | 13.8 ± 0.548 | – |
| CCn1c2ccccc2c2cc(CN3CCN(C(=O)c4ccc([N+](=O)[O-])cc4)CC3)ccc21 [Compound 6034674] | – | 15 ± 0.495 | 11.5 ± 0.501 | – |
| COc1cccc(CN2CCN(C(=O)c3ccc(-c4ccccc4)cc3)CC2)c1OC [Compound 6035098] | – | 19.8 ± 0.721 | 16.6 ± 2.03 | – |
| COc1ccc(C2CC(=O)C3=C(C2)Nc2ccccc2NC3c2ccccc2OC(C)C)cc1 (centres unmarked) [Compound 6043556, 11-(2-isopropoxyphenyl)-3-(4-methoxyphenyl)-2,3,4,5,10,11-hexahydro-1H-dibenzo[b,e][1,4]diazepin-1-one] | – | – | – | 24 ± 2.31 |
| COc1ccc(C2CC(=O)C3=C(C2)Nc2ccccc2NC3c2c(F)cccc2Cl)cc1 (centres unmarked) [Compound 6044487] | 15.3 ± 1.51 | – | – | – |
| CCOc1cccc(C2Nc3ccccc3NC3=C2C(=O)CC(c2ccc(OC)cc2)C3)c1 (centres unmarked) [Compound 6044673] | 21.2 ± 0.362 | 20.2 ± 0.781 | 21.2 ± 0.362 | – |

| Compound | IC50 [1] [µM] | IC50 [2] [µM] | IC50 [3] [µM] | IC50 [4] [µM] |
| --- | --- | --- | --- | --- |
| COc1ccc(C2CC(=O)C3=C(C2)Nc2ccccc2NC3c2ccc(O)cc2)cc1 (centres unmarked) [Compound 6045744, 11-(4-hydroxyphenyl)-3-(4-methoxyphenyl)-2,3,4,5,10,11-hexahydro-1H-dibenzo[b,e][1,4]diazepin-1-one] | – | – | – | > 200 |
| Cc1ccc(C2Nc3ccccc3NC3=C2C(=O)CC(c2ccc(Cl)cc2)C3)cc1 (centres unmarked) [Compound 6047795] | 11 ± 1.04 | – | – | – |
| CC(C)Oc1ccccc1C1Nc2ccccc2NC2=C1C(=O)CC(c1ccc(Cl)cc1)C2 (centres unmarked) [Compound 6047998] | 8.09 ± 0.832 | – | – | – |
| CCOc1cc(C2Nc3ccccc3NC3=C2C(=O)CC(c2ccc(OC)cc2)C3)cc(Br)c1O (centres unmarked) [Compound 6048306] | 18.2 ± 1.93 | – | – | – |
| COc1ccc(C2Nc3ccccc3NC3=C2C(=O)CC(c2ccc(Cl)cc2)C3)cc1 (centres unmarked) [Compound 6049070, 3-(4-chlorophenyl)-11-(4-methoxyphenyl)-2,3,4,5,10,11-hexahydro-1H-dibenzo[b,e][1,4]diazepin-1-one] | – | – | – | 12.5 ± 0.13 |
| COc1ccc(C2CC(=O)C3=C(C2)Nc2ccccc2NC3c2ccc(C(C)C)cc2)cc1 (centres unmarked) [Compound 6049861] | 10.3 ± 1.28 | – | – | – |
| O=C1CC(c2ccccc2)CC2=C1C(c1ccccc1Cl)Nc1ccccc1N2 (centres unmarked) [Compound 6065973] | > 200 | – | – | – |
| CCCCOc1ccccc1C1Nc2ccccc2NC2=C1C(=O)CC(c1ccccc1)C2 (centres unmarked) [Compound 6066511] | 19.2 ± 2.16 | – | – | – |
| COc1ccc(C2CC(=O)C3=C(C2)Nc2ccccc2NC3c2ccc(NC(C)=O)cc2)cc1 (centres unmarked) [Compound 6067345] | > 100 | – | – | – |
| COc1ccc(C2CC(=O)C3=C(C2)Nc2ccccc2NC3c2ccccc2Cl)cc1OC (centres unmarked) [Compound 6076307, 11-(2-chlorophenyl)-3-(3,4-dimethoxyphenyl)-2,3,4,5,10,11-hexahydro-1H-dibenzo[b,e][1,4]diazepin-1-one] | – | – | – | 41.7 ± 0.916 |
| COc1ccc(C2CC(=O)C3=C(C2)Nc2ccccc2NC3c2ccc(F)c(F)c2)cc1 (centres unmarked) [Compound 6079090, 11-(3,4-difluorophenyl)-3-(4-methoxyphenyl)-2,3,4,5,10,11-hexahydro-1H-dibenzo[b,e][1,4]diazepin-1-one] | – | – | – | 21.7 ± 0.247 |
| COc1ccc(C2CC(=O)C3=C(C2)Nc2ccccc2NC3c2c(Cl)cccc2Cl)cc1 (centres unmarked) [Compound 6079349] | 31.5 ± 2.84 | – | – | – |
| COc1ccc(C2CC(=O)C3=C(C2)Nc2ccccc2NC3c2ccc(C)cc2)cc1OC (centres unmarked) [Compound 6105705, 3-(3,4-dimethoxyphenyl)-11-(4-methylphenyl)-2,3,4,5,10,11-hexahydro-1H-dibenzo[b,e][1,4]diazepin-1-one] | – | – | – | 25 ± 0.169 |
| O=C1CC(c2ccccc2)CC2=C1C(c1c(F)cccc1Cl)Nc1ccccc1N2 (centres unmarked) [Compound 6237973] | 19.49 ± 0.169 | 22.6 ± 0.68 | 19.49 ± 0.169 | – |
| COc1ccc(C2CC(=O)C3=C(C2)Nc2ccccc2NC3c2cccc(C(F)(F)F)c2)cc1OC (centres unmarked) [Compound 6238475] | 12.5 ± 0.17 | 18.81 ± 0.157 | 12.5 ± 0.17 | – |
| COc1ccc(C2CC(=O)C3=C(C2)Nc2ccccc2NC3c2cccc(Br)c2)cc1OC (centres unmarked) [Compound 6239538] | 12.5 ± 0.177 | 15.5 ± 0.243 | 12.5 ± 0.177 | – |
| COc1ccc(C2CC(=O)C3=C(C2)Nc2ccccc2NC3c2ccc(-c3ccccc3)cc2)cc1OC (centres unmarked) [Compound 6239945, 11-(4-biphenylyl)-3-(3,4-dimethoxyphenyl)-2,3,4,5,10,11-hexahydro-1H-dibenzo[b,e][1,4]diazepin-1-one] | – | – | – | 21.8 ± 2.97 |
| COc1ccc(C2CC(=O)C3=C(C2)Nc2ccccc2NC3c2ccccc2[N+](=O)[O-])cc1OC (centres unmarked) [Compound 6240043] | 39.6 ± 1.99 | – | – | – |
| COc1ccc(C2CC(=O)C3=C(C2)Nc2ccccc2NC3c2c(F)cccc2F)cc1 (centres unmarked) [Compound 6241186] | 25 ± 0.175 | – | – | – |
| O=C1CC(c2ccccc2)CC2=C1C(c1cccc3ccccc13)Nc1ccccc1N2 (centres unmarked) [Compound 6366991] | 22.2 ± 2.8 | – | – | – |

— patent US20080293699A1, “Inhibitors of thapsigargin-induced cell death” (priority 2007, published 2008)
